In this experiment the target is T1, human GPR40 (Homo sapiens, UniProt O14842).
T1 construct: expressed in transfected cells
Kind of experiment: Evaluation of human GPR40 agonist activity with increase in intracellular Ca2+ concentration as an index (FLIPR Tetra). It counts as cell-based. Conditions: test compound 1 μM; CHO(dhfr−) cells stably expressing human GPR40; 100% = 1 μM WO2009/048527 Example 99.2, 0% = DMSO. The method, then: Evaluation of Human GPR40 Agonist Activity with Increase in Intracellular Ca^2+ Concentration as an Index
CHO(dhfr−) cells that stably expressed human GPR40 were suspended in MEMα (Nikken Bio Medical Laboratory) containing 10% dialysis serum (GEMINI BIO-PRODUCTS), 10 mM HEPES (Invitrogen), 100 U/mL penicillin, 100 μg/mL streptomycin (Invitrogen), and plated on a 384 well black/clear cell culture plate at 10,000 cells/well. After culture overnight in a CO2 incubator at 37° C., the culture supernatant was removed, and a loading buffer [dye attached to Calcium 5 Assay Kit (Molecular Devices) was dissolved in an assay buffer (20 mM HEPES, 0.2% fatty acid-free BSA (Sigma-Aldrich), 2.5 mM probenecid (DOJINDO)-containing HBSS (Invitrogen)) added with 0.025% Cremophor EL (DOJINDO)] was added at 37.5 μL/well. After incubation in a CO2 incubator at 37° C. for 1 hr, the cells were stood at room temperature for 15 min, an assay buffer containing the test compound at a final concentration of 1 μM was added at 12.5 μL/well in FLIPR Tetra (Molecular Devices), and the fluorescence amount was successively measured. Human GPR40 agonist activity calculated using an increase in the intracellular Ca^2+ concentration as an index, wherein the activity of 1 μM of the compound described in WO 2009/048527 (WO2009/048527 Example 99.2) was 100%, and the activity when DMSO was added instead of the test compound was 0%.

Each structure is given as a SMILES string.

T1 sequence (O14842 whole entry): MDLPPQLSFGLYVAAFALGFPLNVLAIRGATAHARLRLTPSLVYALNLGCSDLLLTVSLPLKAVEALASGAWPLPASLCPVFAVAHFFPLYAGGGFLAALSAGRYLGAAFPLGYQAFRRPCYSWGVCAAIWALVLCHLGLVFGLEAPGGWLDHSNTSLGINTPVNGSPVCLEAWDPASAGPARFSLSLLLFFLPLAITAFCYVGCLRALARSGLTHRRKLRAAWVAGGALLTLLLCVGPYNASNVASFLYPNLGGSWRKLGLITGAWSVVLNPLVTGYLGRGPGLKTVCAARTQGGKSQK

In turn, `COc1ccc(F)c(-c2ncc(COc3cc(C(CC(=O)O)C4CC4)ncn3)cc2OCCC(F)(F)F)c1` (stereo not shown) [Example 37, 3-cyclopropyl-3-(6-((6-(2-fluoro-5-methoxyphenyl)-5-(3,3,3-trifluoropropoxy)pyridin-3-yl)methoxy)pyrimidin-4-yl)propanoic acid] yielded an activation at 1 µM of 101%.

These data come from patent publication US9181186B2, “Aromatic ring compound” (TAKEDA PHARMACEUTICAL COMPANY LIMITED, priority 2012, dated 2015).
